Tests used:
[1] = system: antibodies in sera from SARS patients (sera 1a, 1b, 2, 6, 37, 62, London, SARS-yellow, SARS-green); type: binding, human; set-up: Binding of serum 6 to linear peptides of protein X1 of SARS-CoV Urbani / Binding of serum 37 to linear peptides of protein X1 of SARS-CoV Urbani / Binding of serum 6 to looped/cyclic peptide (PEPSCAN-ELISA) / Binding of serum 37 to looped/cyclic peptide (PEPSCAN-ELISA) / Binding of serum 37 to looped/cyclic peptides of protein X1 of SARS-CoV Urbani / Binding of serum 6 to linear peptides of protein X2 / Binding of serum 37 to linear peptides of protein X2 / Binding of serum 37 to looped/cyclic peptides of protein X2 of SARS-CoV Urbani / Binding of serum 6 to linear peptides of protein M of SARS-CoV Urbani / Binding of serum 37 to linear peptides of protein M of SARS-CoV Urbani / Binding of serum 6 to looped/cyclic peptides of protein M of SARS-CoV Urbani / Binding of serum 37 to looped/cyclic peptides of protein M of SARS-CoV Urbani / Binding of serum 6 to linear peptides of protein X3 of SARS-CoV Urbani / Binding of serum 37 to linear peptides of protein X3 of SARS-CoV Urbani / Binding of serum 37 to looped/cyclic peptides of protein X3 of SARS-CoV Urbani / Binding of serum 6 to linear peptides of protein X4 of SARS-CoV Urbani / Binding of serum 37 to linear peptides of protein X4 of SARS-CoV Urbani / Binding of serum 37 to looped/cyclic peptides of protein X4 of SARS-CoV Urbani / Binding of serum 6 to linear peptides of protein X5 of SARS-CoV Urbani / Binding of serum 37 to linear peptides of protein X5 of SARS-CoV Urbani / Binding of serum 37 to looped/cyclic peptides of protein X5 of SARS-CoV Urbani / Binding of serum 6 to linear peptides of protein N of SARS-CoV Urbani / Binding of serum 37 to linear peptides of protein N of SARS-CoV Urbani / Binding of serum 6 to linear peptide (PEPSCAN-ELISA) / Binding of serum 1a to looped/cyclic peptides of protein N of SARS-CoV Urbani / Binding of serum 1b to looped/cyclic peptides of protein N of SARS-CoV Urbani / Binding of serum 2 to looped/cyclic peptides of protein N of SARS-CoV Urbani / Binding of serum 6 to looped/cyclic peptides of protein N of SARS-CoV Urbani / Binding of serum 37 to looped/cyclic peptides of protein N of SARS-CoV Urbani / Binding of serum 62 to looped/cyclic peptides of protein N of SARS-CoV Urbani / Binding of serum London to looped/cyclic peptides of protein N of SARS-CoV Urbani / Binding of serum SARS-green to looped/cyclic peptides of protein N of SARS-CoV Urbani: unit not given here
[2] = system: rabbit serum obtained by immunizing a rabbit with the SARS-CoV strain Frankfurt 1; type: binding; set-up: Binding of a rabbit serum to linear peptides / Binding of a rabbit serum to looped peptides / Rabbit serum linear peptides / Rabbit serum looped peptides / Binding of a rabbit serum to linear peptides of protein N of SARS-CoV Urbani (Rabbit serum linear peptides) / Binding of a rabbit serum to looped/cyclic peptides of protein N of SARS-CoV Urbani (Rabbit serum looped peptides): unit not given here
[3] = system: control sera (pooled serum of ten healthy LUMC hospital workers; commercial negative donor pooled serum from the Dutch bloodbank); type: binding, human; set-up: Binding of Control serum LUMC to linear peptides / Binding of Control serum Blood-bank to linear peptides / Binding of Control serum LUMC to looped peptides / Binding of Control Serum Blood-Bank to Looped peptides / Binding of Control serum LUMC to linear peptides of the protein M of SARS-CoV Urbani / Binding of Control serum Blood-bank to linear peptides of the protein M of SARS-CoV Urbani / Binding of Control serum LUMC to looped peptides of the protein M of SARS-CoV Urbani / Binding of Control Serum Blood-Bank to Looped peptides of the protein M of SARS-CoV Urbani: unit not given here

## LRARSVSPKLFIRQE
[1]
  Binding of serum 1a to linear peptides of protein X4 of SARS-CoV Urbani: 0.7
  Binding of serum 1a to looped/cyclic peptides of protein X4 of SARS-CoV Urbani: 0.8
  Binding of serum 1b to linear peptides of protein X4 of SARS-CoV Urbani: 0.6
  Binding of serum 1b to looped/cyclic peptides of protein X4 of SARS-CoV Urbani: 0.6
  Binding of serum 2 to linear peptides of protein X4 of SARS-CoV Urbani: 0.5
  Binding of serum 2 to looped/cyclic peptides of protein X4 of SARS-CoV Urbani: 0.6
  Binding of serum 6 to linear peptides of protein X4 of SARS-CoV Urbani: 0.8
  Binding of serum 6 to looped/cyclic peptides of protein X4 of SARS-CoV Urbani: 0.8
  Binding of serum 37 to linear peptides of protein X4 of SARS-CoV Urbani: 0.7
  Binding of serum 37 to looped/cyclic peptides of protein X4 of SARS-CoV Urbani: 0.7
  Binding of serum 62 to linear peptides of protein X4 of SARS-CoV Urbani: 0.8
  Binding of serum 62 to looped/cyclic peptides of protein X4 of SARS-CoV Urbani: 0.7
  Binding of serum London to linear peptides of protein X4 of SARS-CoV Urbani: 0.8
  Binding of serum London to looped/cyclic peptides of protein X4 of SARS-CoV Urbani: 0.4
  Binding of serum SARS-green to linear peptides of protein X4 of SARS-CoV Urbani: 0.6
  Binding of serum SARS-green to looped/cyclic peptides of protein X4 of SARS-CoV Urbani: 0.6
  Binding of serum SARS-yellow to linear peptides of protein X4 of SARS-CoV Urbani: 0.3
  Binding of serum SARS-yellow to looped/cyclic peptides of protein X4 of SARS-CoV Urbani: 0.7
[2]
  Recognition of the peptide by the rabbit serum: recognized
[3]
  Binding of Control Serum Blood-Bank to Looped peptides: 0.6
  Binding of Control serum Blood-bank to linear peptides: 0.6
  Binding of Control serum LUMC to linear peptides: 0.6
  Binding of Control serum LUMC to looped peptides: 0.7

## LRGTIVTRPLMESEL
[1]
  Binding of serum 1a to linear peptides of protein M of SARS-CoV Urbani: 0.7
  Binding of serum 1b to linear peptides of protein M of SARS-CoV Urbani: 0.5
  Binding of serum 2 to linear peptides of protein M of SARS-CoV Urbani: 0.3
  Binding of serum 6 to linear peptides of protein M of SARS-CoV Urbani: 0.3
  Binding of serum 37 to linear peptides of protein M of SARS-CoV Urbani: 0.5
  Binding of serum 62 to linear peptides of protein M of SARS-CoV Urbani: 0.4
  Binding of serum London to linear peptides of protein M of SARS-CoV Urbani: 0.3
  Binding of serum SARS-green to linear peptides of protein M of SARS-CoV Urbani: 0.4
  Binding of serum SARS-yellow to linear peptides of protein M of SARS-CoV Urbani: 1.0
  Recognition of the peptide by sera of SARS-CoV infected individuals, and form (linear, looped/cyclic) in which it is recognized: recognized in looped/cyclic form
[2]
  Rabbit serum linear peptides: 0.0
  Rabbit serum looped peptides: 0.5
[3]
  Binding of Control Serum Blood-Bank to Looped peptides of the protein M of SARS-CoV Urbani: 0.7
  Binding of Control serum Blood-bank to linear peptides of the protein M of SARS-CoV Urbani: 0.5
  Binding of Control serum LUMC to linear peptides of the protein M of SARS-CoV Urbani: 0.5
  Binding of Control serum LUMC to looped peptides of the protein M of SARS-CoV Urbani: 0.7

## LSLHKLLQTLVLKML
[1]
  Binding of serum 1a to linear peptides of protein X2: 0.7
  Binding of serum 1a to looped/cyclic peptides of protein X2 of SARS-CoV Urbani: 0.5
  Binding of serum 1b to linear peptides of protein X2: 0.4
  Binding of serum 1b to looped/cyclic peptides of protein X2 of SARS-CoV Urbani: 0.4
  Binding of serum 2 to linear peptides of protein X2: 0.3
  Binding of serum 2 to looped/cyclic peptides of protein X2 of SARS-CoV Urbani: 0.3
  Binding of serum 6 to linear peptides of protein X2: 0.3
  Binding of serum 6 to looped/cyclic peptides of protein X2 of SARS-CoV Urbani: 0.6
  Binding of serum 37 to linear peptides of protein X2: 0.4
  Binding of serum 37 to looped/cyclic peptides of protein X2 of SARS-CoV Urbani: 0.4
  Binding of serum 62 to linear peptides of protein X2: 0.5
  Binding of serum 62 to looped/cyclic peptides of protein X2 of SARS-CoV Urbani: 0.6
  Binding of serum London to linear peptides of protein X2: 0.4
  Binding of serum London to looped/cyclic peptides of protein X2 of SARS-CoV Urbani: 1.3
  Binding of serum SARS-green to linear peptides of protein X2: 0.4
  Binding of serum SARS-green to looped/cyclic peptides of protein X2 of SARS-CoV Urbani: 0.2
  Binding of serum SARS-yellow to linear peptides of protein X2: 0.2
  Binding of serum SARS-yellow to looped/cyclic peptides of protein X2 of SARS-CoV Urbani: 0.6
[2]
  Binding of a rabbit serum to linear peptides: 0.3
  Binding of a rabbit serum to looped peptides: 0.5
[3]
  Binding of Control Serum Blood-Bank to Looped peptides: 0.6
  Binding of Control serum Blood-bank to linear peptides: 0.5
  Binding of Control serum LUMC to linear peptides: 0.2
  Binding of Control serum LUMC to looped peptides: 0.7

## LSYFVASFRLFARTR
[1]
  Binding of serum 1a to linear peptides of protein M of SARS-CoV Urbani: 0.7
  Binding of serum 1b to linear peptides of protein M of SARS-CoV Urbani: 0.4
  Binding of serum 2 to linear peptides of protein M of SARS-CoV Urbani: 0.4
  Binding of serum 6 to linear peptides of protein M of SARS-CoV Urbani: 0.4
  Binding of serum 37 to linear peptides of protein M of SARS-CoV Urbani: 0.6
  Binding of serum 62 to linear peptides of protein M of SARS-CoV Urbani: 0.7
  Binding of serum London to linear peptides of protein M of SARS-CoV Urbani: 0.3
  Binding of serum SARS-green to linear peptides of protein M of SARS-CoV Urbani: 0.2
  Binding of serum SARS-yellow to linear peptides of protein M of SARS-CoV Urbani: 0.1
  Recognition of the peptide by sera of SARS-CoV infected individuals, and form (linear, looped/cyclic) in which it is recognized: recognized in looped/cyclic form
[2]
  Rabbit serum linear peptides: 0.4
  Rabbit serum looped peptides: 0.6
[3]
  Binding of Control Serum Blood-Bank to Looped peptides of the protein M of SARS-CoV Urbani: 0.8
  Binding of Control serum Blood-bank to linear peptides of the protein M of SARS-CoV Urbani: 0.6
  Binding of Control serum LUMC to linear peptides of the protein M of SARS-CoV Urbani: 0.3
  Binding of Control serum LUMC to looped peptides of the protein M of SARS-CoV Urbani: 1.0

## LTCTSTHFAFACADG
[1]
  Binding of serum 1a to linear peptides of protein X4 of SARS-CoV Urbani: 0.8
  Binding of serum 1a to looped/cyclic peptides of protein X4 of SARS-CoV Urbani: 0.6
  Binding of serum 1b to linear peptides of protein X4 of SARS-CoV Urbani: 0.8
  Binding of serum 1b to looped/cyclic peptides of protein X4 of SARS-CoV Urbani: 0.3
  Binding of serum 2 to linear peptides of protein X4 of SARS-CoV Urbani: 0.5
  Binding of serum 2 to looped/cyclic peptides of protein X4 of SARS-CoV Urbani: 0.6
  Binding of serum 6 to linear peptides of protein X4 of SARS-CoV Urbani: 0.6
  Binding of serum 6 to looped/cyclic peptides of protein X4 of SARS-CoV Urbani: 0.5
  Binding of serum 37 to linear peptides of protein X4 of SARS-CoV Urbani: 0.8
  Binding of serum 37 to looped/cyclic peptides of protein X4 of SARS-CoV Urbani: 0.5
  Binding of serum 62 to linear peptides of protein X4 of SARS-CoV Urbani: 0.8
  Binding of serum 62 to looped/cyclic peptides of protein X4 of SARS-CoV Urbani: 0.6
  Binding of serum London to linear peptides of protein X4 of SARS-CoV Urbani: 0.8
  Binding of serum London to looped/cyclic peptides of protein X4 of SARS-CoV Urbani: 0.3
  Binding of serum SARS-green to linear peptides of protein X4 of SARS-CoV Urbani: 0.8
  Binding of serum SARS-green to looped/cyclic peptides of protein X4 of SARS-CoV Urbani: 0.4
  Binding of serum SARS-yellow to linear peptides of protein X4 of SARS-CoV Urbani: 0.5
  Binding of serum SARS-yellow to looped/cyclic peptides of protein X4 of SARS-CoV Urbani: 0.4
[2]
  Rabbit serum linear peptides: 0.5
  Rabbit serum looped peptides: 0.3
[3]
  Binding of Control Serum Blood-Bank to Looped peptides: 0.7
  Binding of Control serum Blood-bank to linear peptides: 0.8
  Binding of Control serum LUMC to linear peptides: 0.8
  Binding of Control serum LUMC to looped peptides: 0.6
